According to US20040067483A1, “Compositions, methods and kits for identying protein-protein interaction disrupting agents” (priority 2003, published 2004):

Molecular target: T1, interaction between TGFR (RI) and FKPB12 (Homo sapiens, UniProt P62942)
T1 construct: expressed in transfected cells; host or cells: 293A cells
Assay: Mammalian reverse two-hybrid system, GFP reporter, stable cell line (pCMV-tetOP-AD-RI-IRES-BD-FKBP12)
Assay type: cell-based
Details: 293A cells; 1 μg/ml Dox, 48 hrs; FK506 100 nM, AG1478 2.5 μM; FIG. 2
Procedure: Green Fluorescence Protein (GFP). To directly assay the expression of GFP, cells were cultured in 96 or 384 well low fluorescence assay plates with 100 or 50 μl of DMEM medium. Dox and agents were added at concentrations described below. Following 48-hrs of treatment, the medium in each well was replaced with PBS. The intensity of GFP was directly measured at 485 mn excitation and 525 nm emission with a fluorescence multi-well plate reader (CytoFluor II, PerSeptive Biosystems or Wallac Victor V Stacker, Perkin Elmer).
The mammalian reverse two-hybrid system of the present invention was tested with this protein-protein interaction pair to evaluate if the effect of FK506 on disrupting the interaction can be detected. To achieve this, the cytoplasmic domain of the TGFR (RI) was fused with the transcriptional activation domain (AD) of VP16 and FKBP12 was fused with the Gal4 DNA binding domain (BD).
A stable cell line harboring the construct TetR-KRAB, GFP reporter construct, and the construct pCMV-tetOP-AD-RI-IRES-BD-FKBP12 was selected to evaluate the effect of drug molecule FK506 on the interaction between TGFR (RI) and FKPB12. The intensity of GFP expression was monitored following 48 hrs of treatment of the cells with the inducer Dox and the agent FK506.
Expression of the GFP reporter gene was evaluated following the treatment. […]

T1 sequence (P62942 whole entry): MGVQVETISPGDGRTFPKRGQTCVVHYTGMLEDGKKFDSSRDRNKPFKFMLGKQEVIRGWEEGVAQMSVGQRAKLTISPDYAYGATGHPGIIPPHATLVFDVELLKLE

With `COc1cc2ncnc(Nc3cccc(Cl)c3)c2cc1OC` [AG1478] the “Dox induced GFP expression (GFP reporter gene)” value was “no effect”.
